Data published in patent US8828908B2, “Herbicidally active bicyclic 1,3-dione compounds” (Syngenta Limited, priority 2007, dated 2014).

Legend:
Assay type in all cases: in vivo
Setaria faberi (SETFA) [1] = experiment: Example A post-emergence herbicidal glasshouse test; conditions: 312 h, evaluated after 13 days, 100=total damage to plant, 0=no damage
Procedure, shortened: (§1)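 After sowing in standard soil, pots were cultivated 1 day (pre-emergence) or 8 days (post-emergence), then treated with an aqueous spray of the formulated active ingredient (acetone/water 50:50, 0.5% Tween 20). Phytotoxicity was assessed on a 0–100 scale at 13 days.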

[2] = system: Alopecurus myosuroides (ALOMY); experiment: as above; conditions: 312 h, evaluated after 13 days, 100=total damage to plant, 0=no damage
Procedure, shortened: as §1

[3] = system: Amaranthus retroflexus (AMARE); experiment: as above; conditions: 312 h, evaluated after 13 days, 100=total damage to plant, 0=no damage
Procedure, shortened: as §1

Solanum nigrum (SOLNI) [4] = experiment: as above; conditions: 250 g/ha, evaluated after 13 days, 100=total damage to plant, 0=no damage
Procedure, shortened: as §1

Avena fatua (AVEFA) [5] = experiment: as above; conditions: 312 h, evaluated after 13 days, 100=total damage to plant, 0=no damage
Procedure, shortened: as §1

[6] = system: Echinochloa crus-galli (ECHCG); experiment: as above; conditions: 312 h, evaluated after 13 days, 100=total damage to plant, 0=no damage
Procedure, shortened: as §1

Setaria faberi (SETFA) [7] = experiment: Example A pre-emergence herbicidal glasshouse test; conditions: 312 h, Rate 250 g/ha, evaluated after 13 days, 100=total damage to plant, 0=no damage to plant
Procedure, shortened: as §1

[8] = system: Alopecurus myosuroides (ALOMY); experiment: Example A pre-emergence herbicidal glasshouse test; conditions: 312 h, Rate 250 g/ha, evaluated after 13 days, 100=total damage to plant, 0=no damage to plant
Procedure, shortened: as §1

[9] = system: Amaranthus retroflexus (AMARE); experiment: Example A pre-emergence herbicidal glasshouse test; conditions: 312 h, Rate 250 g/ha, evaluated after 13 days, 100=total damage to plant, 0=no damage to plant
Procedure, shortened: as §1

Solanum nigrum (SOLNI) [10] = experiment: Example A pre-emergence herbicidal glasshouse test; conditions: Rate 250 g/ha, evaluated after 13 days, 100=total damage to plant, 0=no damage to plant
Procedure, shortened: as §1

Avena fatua (AVEFA) [11] = experiment: Example A pre-emergence herbicidal glasshouse test; conditions: 312 h, Rate 250 g/ha, evaluated after 13 days, 100=total damage to plant, 0=no damage to plant
Procedure, shortened: as §1

[12] = system: Echinochloa crus-galli (ECHCG); experiment: Example A pre-emergence herbicidal glasshouse test; conditions: 312 h, Rate 250 g/ha, evaluated after 13 days, 100=total damage to plant, 0=no damage to plant
Procedure, shortened: as §1

[13] = system: Digitaria sanguinalis (DIGSA); experiment: Example B post-emergence herbicidal greenhouse test; conditions: 360 h, evaluated after 15 days, 100=total damage to plant, 0=no damage
Procedure, shortened: (§2)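 Spray of formulated compound 1 day after sowing (pre-emergence) or onto seedlings 10 days after sowing (post-emergence); greenhouse growth under optimum conditions; evaluation at 20 days (pre) or 15 days (post), 0-100 damage.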

Lolium perenne (LOLPE) [14] = experiment: as above; conditions: 360 h, evaluated after 15 days, 100=total damage to plant, 0=no damage
Procedure, shortened: as §2

Setaria faberi (SETFA) [15] = experiment: as above; conditions: 360 h, evaluated after 15 days, 100=total damage to plant, 0=no damage
Procedure, shortened: as §2

[16] = system: Alopecurus myosuroides (ALOMY); experiment: as above; conditions: 360 h, evaluated after 15 days, 100=total damage to plant, 0=no damage
Procedure, shortened: as §2

Avena fatua (AVEFA) [17] = experiment: as above; conditions: 360 h, evaluated after 15 days, 100=total damage to plant, 0=no damage
Procedure, shortened: as §2

[18] = system: Echinochloa crus-galli (ECHCG); experiment: as above; conditions: 360 h, evaluated after 15 days, 100=total damage to plant, 0=no damage
Procedure, shortened: as §2

[19] = system: Digitaria sanguinalis (DIGSA); experiment: Example B pre-emergence herbicidal greenhouse test; conditions: 480 h, evaluated after 20 days, 100=total damage to plant, 0=no damage
Procedure, shortened: as §2

Lolium perenne (LOLPE) [20] = experiment: Example B pre-emergence herbicidal greenhouse test; conditions: 480 h, evaluated after 20 days, 100=total damage to plant, 0=no damage
Procedure, shortened: as §2

Setaria faberi (SETFA) [21] = experiment: Example B pre-emergence herbicidal greenhouse test; conditions: 480 h, evaluated after 20 days, 100=total damage to plant, 0=no damage
Procedure, shortened: as §2

[22] = system: Alopecurus myosuroides (ALOMY); experiment: Example B pre-emergence herbicidal greenhouse test; conditions: 480 h, evaluated after 20 days, 100=total damage to plant, 0=no damage
Procedure, shortened: as §2

Avena fatua (AVEFA) [23] = experiment: Example B pre-emergence herbicidal greenhouse test; conditions: 480 h, evaluated after 20 days, 100=total damage to plant, 0=no damage
Procedure, shortened: as §2

[24] = system: Echinochloa crus-galli (ECHCG); experiment: Example B pre-emergence herbicidal greenhouse test; conditions: 480 h, evaluated after 20 days, 100=total damage to plant, 0=no damage
Procedure, shortened: as §2

Row | SMILES | pest or weed control at 250 g/ha (Setaria faberi (SETFA) [1]) [%] | pest or weed control at 250 g/ha [2] [%] | pest or weed control at 250 g/ha [3] [%] | pest or weed control at 250 g/ha (Avena fatua (AVEFA) [5]) [%] | pest or weed control at 250 g/ha [6] [%] | pest or weed control at 250 g/ha (Setaria faberi (SETFA) [7]) [%] | pest or weed control at 250 g/ha [8] [%] | pest or weed control at 250 g/ha [9] [%] | pest or weed control at 250 g/ha (Avena fatua (AVEFA) [11]) [%] | pest or weed control at 250 g/ha [12] [%] | pest or weed control at 125 g/ha [13] [%] | pest or weed control at 125 g/ha (Lolium perenne (LOLPE) [14]) [%] | pest or weed control at 125 g/ha (Setaria faberi (SETFA) [15]) [%] | pest or weed control at 125 g/ha [16] [%] | pest or weed control at 125 g/ha (Avena fatua (AVEFA) [17]) [%] | pest or weed control at 125 g/ha [18] [%] | pest or weed control at 250 g/ha [19] [%] | pest or weed control at 250 g/ha (Lolium perenne (LOLPE) [20]) [%] | pest or weed control at 250 g/ha (Setaria faberi (SETFA) [21]) [%] | pest or weed control at 250 g/ha [22] [%] | other results
1 | Cc1ccc(-c2cccc(F)c2)cc1C1=C(O)[C@H]2CC[C@H](C2)C1=O (single isomer, unassigned) [Compound T13] | 0 | 0 | 0 | 0 | 10 | 0 | 0 | 0 | 0 | 0 | – | – | – | – | – | – | – | – | – | – | SOLNI damage to plant (Solanum nigrum (SOLNI) [4]): 0; SOLNI damage to plant (Solanum nigrum (SOLNI) [10]): 0
2 | Cc1cc(C)c(-c2ccc(C)c(C3=C(O)[C@H]4CC[C@H](C4)C3=O)c2)c(C)c1 (single isomer, unassigned) [Compound T15] | 0 | – | 0 | – | – | 0 | 0 | 0 | 0 | – | – | – | – | – | – | – | – | – | – | – | SOLNI damage to plant (Solanum nigrum (SOLNI) [4]): 0
3 | CCc1ccc(-c2ccc(Cl)cc2Cl)cc1C1=C(O)[C@H]2CC[C@H](C2)C1=O [Compound T44, 3-(2′,4′-dichloro-4-ethylbiphen-3-yl)bicyclo[3.2.1]octane-2,4-dione] | 100 | 90 | 0 | 90 | 100 | 100 | 50 | 0 | 20 | 90 | 100 | 30 | 100 | 60 | 90 | 100 | 80 | 10 | 70 | 0 | pest or weed control at 250 g/ha (Avena fatua (AVEFA) [23]): 10%; pest or weed control at 250 g/ha [24]: 50%
4 | CCc1ccc(-c2ccc(Cl)cc2)cc1C1=C(O)[C@H]2CC[C@H](CC2)C1=O [Compound T54, 3-(4′-chloro-4-ethylbiphen-3-yl)bicyclo[3.2.2]nonane-2,4-dione] | 100 | 100 | 0 | 100 | 100 | 100 | 90 | 40 | 90 | 100 | 100 | 60 | 100 | 90 | 70 | 100 | 100 | 100 | 90 | 70 | pest or weed control at 250 g/ha (Avena fatua (AVEFA) [23]): 50%; pest or weed control at 250 g/ha [24]: 100%
5 | CCc1cc(-c2ccc(Cl)cc2)ccc1C1=C(O)[C@H]2CC[C@H](C2)C1=O [Compound T59, 3-(4′-chloro-3-ethylbiphen-4-yl)bicyclo[3.2.1]octane-2,4-dione] | 100 | 100 | 30 | 90 | 100 | 100 | 70 | 0 | 70 | 100 | 100 | 80 | 100 | 90 | 30 | 100 | 90 | 80 | 100 | 80 | pest or weed control at 250 g/ha (Avena fatua (AVEFA) [23]): 70%; pest or weed control at 250 g/ha [24]: 100%
6 | Cc1cc(-c2ccc(Cl)cc2)ccc1C1=C(O)[C@H]2CC[C@H](C2)C1=O [Compound T61, 3-(4′-chloro-3-methylbiphen-4-yl)bicyclo[3.2.1]octane-2,4-dione] | 100 | 100 | 20 | 60 | 100 | 90 | 40 | 0 | 30 | 80 | 100 | 30 | 90 | 60 | 30 | 80 | 100 | 90 | 100 | 100 | pest or weed control at 250 g/ha (Avena fatua (AVEFA) [23]): 40%; pest or weed control at 250 g/ha [24]: 90%
7 | CCc1cc(-c2ccc(Cl)cc2)cc(CC)c1C1=C(O)[C@H]2CC[C@H](C2)C1=O [Compound T62, 3-(4′-chloro-3,5-diethylbiphen-4-yl)bicyclo[3.2.1]octane-2,4-dione] | 100 | 100 | 0 | 90 | 100 | 100 | 80 | 20 | 80 | 100 | 100 | 50 | 100 | 60 | 60 | 100 | 100 | 100 | 100 | 100 | pest or weed control at 250 g/ha (Avena fatua (AVEFA) [23]): 50%; pest or weed control at 250 g/ha [24]: 100%
8 | CCc1cc(-c2ccc(C)cc2)cc(CC)c1C1=C(O)[C@H]2CC[C@H](C2)C1=O [Compound T63] | 100 | 70 | 0 | 50 | 100 | 100 | 50 | 0 | 30 | 90 | 60 | 10 | 50 | 0 | 20 | 50 | 90 | 100 | 70 | 80 | pest or weed control at 250 g/ha (Avena fatua (AVEFA) [23]): 20%; pest or weed control at 250 g/ha [24]: 60%
